Results taken from US11773066B2, “Indazolylcyanoethylamino compound, compositions of same, method of making, and methods of using thereof” (BOEHRINGER INGELHEIM ANIMAL HEALTH USA INC., priority 2018, dated 2023).
Values after ≈ are worked out from the molar mass of the structure shown.

How the values were obtained:
[1] = tested on: Haemonchus contortus larvae; assay: In vitro Haemonchus contortus larval motility (L1 to L3 development) assay, MIC90; assay type: cell-based; details: 96 h, L1 larvae in nutrient medium, 27° C., 97% relative humidity, 4 days, motility of L3 vs DMSO control, read-out: MIC90 (minimum concentration inhibiting motility of the larvae by 90%)
Experimental: The following procedure was used for the study: Twenty L1 Haemonchus contortus larvae were added to wells of a microtitre plate containing a nutrient medium and the test compound in DMSO. The microtitre plate was held at 27° C. and 97% Relative humidity for a 4 day period. Under these conditions the added larvae develop to the L3 stage. The efficacy of a compound is determined based on the motility of the resulting L3 larvae and compared to the motility of control wells treated with DMSO only.

[2] = tested on: Cooperia oncophora; assay: In vivo efficacy in experimentally infected calves, worm count reduction; details: oral; for efficacy against C. oncophora males in words: Compound I compared with eprinomectin (Group 3) or ivermectin (Group 4); for % Reduction in Worm Counts, C. oncophora Males: single treatment Day 0, necropsy Day 16, vs untreated control, Compound I 2 mg/kg, eprinomectin 0.075 mg/kg, ivermectin 0.150 mg/kg
From the text: (§1) The efficacy of Compound I against parasitic gastrointestinal nematodes in cattle when administered orally as an oral solution was studied. Thirty male castrate dairy calves of approximately 8 to 12 weeks of age were experimentally infected with parasitic nematodes. The calves were inoculated with Haemonchus […] Ostertagia ostertagi on Day -33 and with Cooperia punctata and Cooperia oncophora on Day -21. Calves were allocated to one of the six treatment groups. Calves in Treatment Group 1 were not treated. Calves in Treatment Groups 2-6 were treated on Day 0 as outlined in the Table 2 below with a formulation containing 5% (w/v) of Compound I in a carrier comprising 50% (v/v) PEG 400 with the remainder (QS to 130 mL0 PEG 300. [table] All calves were euthanized on Day 16 and the abomasum and small intestine were recovered from each calf and processed for parasite recovery. All five calves in the untreated control group harbored adequate infections of […]. ostertagi, C. punctate and C. oncophora. The efficacy of each treatment group relative to the control group is shown in Table 3 below: […]

[3] = tested on: Cooperia punctata; assay: as above; details: oral, single treatment Day 0, necropsy Day 16, vs untreated control, Compound I 2 mg/kg, eprinomectin 0.075 mg/kg, ivermectin 0.150 mg/kg
From the text: as §1

[4] = tested on: Cooperia spp.; assay: as above; details: oral; for % Reduction in Worm Counts, Cooperia spp. Females: single treatment Day 0, necropsy Day 16, vs untreated control, Compound I 2 mg/kg, eprinomectin 0.075 mg/kg, ivermectin 0.150 mg/kg
From the text: as §1

[5] = tested on: Haemonchus placei; assay: as above; details: oral, single treatment Day 0, necropsy Day 16, vs untreated control, Compound I 2 mg/kg, eprinomectin 0.075 mg/kg, ivermectin 0.150 mg/kg
From the text: as §1

[6] = tested on: Ostertagia ostertagi; assay: as above; details: oral, single treatment Day 0, necropsy Day 16, vs untreated control, Compound I 2 mg/kg, eprinomectin 0.075 mg/kg, ivermectin 0.150 mg/kg
From the text: as §1

Row | Compound | MIC90 [1] | efficacy against C. oncophora males in words [2] | % Reduction in Worm Counts, C. oncophora Males [2] | % Reduction in Worm Counts, C. punctata Males [3] | efficacy against Cooperia spp. female worms in words ([4]; Compound I compared with eprinomectin (Group 3) or ivermectin (Group 4)) | % Reduction in Worm Counts, Cooperia spp. Females [4] | % Reduction in Worm Counts, H. placei Adults [5] | % Reduction in Worm Counts, O. ostertagi Females [6] | % Reduction in Worm Counts, O. ostertagi Males [6]
1 | CC(C#N)(Cn1cc2c(C(F)(F)F)cc(Cl)c(Cl)c2n1)NC(=O)c1ccc(SC(F)(F)F)cc1 (centres unmarked) [Compound II] | 1.2 ng/mL (≈ 2.22 nM) |  |  |  |  |  |  |  | 
2 | CC(C#N)(Cn1cc2c(C(F)F)cc(Cl)c(Cl)c2n1)NC(=O)c1ccc(SC(F)(F)F)cc1 (centres unmarked) [Compound I] | 0.3 ng/mL (≈ 0.573 nM) | significantly more effective | 83.0% | 100.0% | significantly more effective | 90.9% | 100.0% | 96.4% | 96.3%
3 | CC(C#N)(Cn1cc2ccc(Cl)cc2n1)NC(=O)c1ccc(SC(F)(F)F)cc1 (centres unmarked) [‘999 App, 2.038] | 2.4 ng/mL (≈ 5.47 nM) |  |  |  |  |  |  |  | 
4 | CC(C#N)(Cn1cc2c(Cl)cc(Cl)cc2n1)NC(=O)c1ccc(SC(F)(F)F)cc1 (centres unmarked) [‘999 App, 2.041] | 2.4 ng/mL (≈ 5.07 nM) |  |  |  |  |  |  |  | 
5 | CC(C#N)(Cn1cc2c(Cl)cc(Cl)c(Cl)c2n1)NC(=O)c1ccc(SC(F)(F)F)cc1 (centres unmarked) [‘999 App, 2.049] | 1.2 ng/mL (≈ 2.36 nM) |  |  |  |  |  |  |  | 
6 | eprinomectin |  |  | 0% | 94.7% |  | 55.8% | 98.9% | 99.4% | 95.7%
7 | ivermectin |  | not effective | 0% | 91% |  | 46% | 82% | 81% | 75%
